Measurements: patent publication US12092631B2, “Optical thromboelastography systems and methods” (The General Hospital Corporation, priority 2014, dated 2024)

What was measured:
[1] = tested on: platelets in platelet rich plasma; experiment: OTEG platelet aggregation/disaggregation in platelet rich plasma specimens; type: cell-based; settings: FIG. 19A
Experimental: FIG. 15B is a block-scheme representing an embodiment of the processing algorithm according to the invention for calculating the platelet aggregate size from speckle fluctuations in the plasma. Platelet rich plasma specimen is transferred into an OTEG cartridge, customized for platelet function assessment and preloaded with 20 μl Adenosine 5′-diphosphate solution (Sigma-Aldrich) (i.e. 5 μM final concentration of ADP in the […]). The cartridge is inserted in the OTEG device and speckle acquisition begins immediately. During acquisition, ADP triggers conformational changes followed by aggregation, which increase the average scattering particle radius. Since Ca′ ions are absent, coagulation cascade is not initiated and the plasma appears as a primarily viscous liquid with the viscosity of η=3 centipoises (@ 37° C.), particularly at small length scales probed by platelets. Compared to small isolated platelets, large aggregates experience a shorter range of diffusive motion and induce slower speckle fluctuations. To estimate the rate of platelet aggregation, speckle frames are processed and speckle intensity autocorrelation functions are calculated. Since plasma is an optically dilute material, the mean square displacements (MSD) values of platelet aggregates can be extracted from the g2(t) curves, using the DLS formalism, as shown in FIG. 7(B), box 2. Fitting the MSD to a linear model of MSD=6Dt at early times provides the diffusion coefficient, D, of scattering particles. The effective scattering radius is then obtained from the Stokes-Einstein relation as: α=KbT/(6πDη), where Kb is the Boltzman constant and T is the temperature (degrees Kelvin).

[2] = tested on: platelets in human whole blood; experiment: OTEG platelet aggregate size in ADP-activated human whole blood; type: cell-based; settings: FIG. 8B
Experimental: FIGS. 8A, 8B: Preliminary studies to assess platelet aggregation using OTEG methodology. FIG. 8A: Increasing aggregate radius, a, of polystyrene beads (rad=1.5 μm) caused by adding MgCl2 salt is detected by OTEG. Aggregate size was related with salt concentration, confirmed by other reports. FIG. 8B: In human whole blood, OTEG detects a 5-fold and 2.5-fold increase in aggregate size with addition of 10 and 5 μM ADP relative to blood without ADP (control). […] To enable platelet function assessment (PLT channel) via the embodiment of the OTEG device of the present invention, a new strategy was implemented to quantify platelet aggregation in whole blood. […] To estimate the rate and extent of platelet aggregation, speckle frames are processed and MSD values are calculated, as above (FIG. 5; box 3). […] The effective particle radius, a, is then obtained from the Stokes-Einstein relation (SER) (FIG. 5: box 4c), the aggregate growth from the baseline at time t=0 is plotted, and the maximum extent of platelet aggregation (RPLT) is estimated at 10 min to quantify platelet function (FIG. 12B). […] We further verified the capability to detect platelet aggregation in ADP-activated blood and monitored the change of effective aggregate radius. […] Clearly, the effective aggregate radius increase with ADP concentration and can be detected with OTEG with high sensitivity. […]

| Structure (SMILES) | platelet aggregation detected by OTEG ([1]; ADP 5 μM plus Clopidogrel 3 μM) | platelet aggregation detected by OTEG ([1]; ADP 5 μM plus Clopidogrel 30 μM) | increase in aggregate size relative to blood without ADP (control) ([2]; 5 μM ADP) [fold] | increase in aggregate size relative to blood without ADP (control) ([2]; 10 μM ADP) [fold] | platelet aggregation detected by OTEG ([1]; ADP final concentration 5 μM) |
| --- | --- | --- | --- | --- | --- |
| COC(=O)[C@H](c1ccccc1Cl)N1CCc2sccc2C1 [Clopidogrel] | rapid initial aggregation, followed by a rapid disaggregation | no aggregation |  |  |  |
| Nc1ncnc2c1ncn2[C@@H]1O[C@H](COP(=O)(O)OP(=O)(O)O)[C@@H](O)[C@H]1O [ADP, Adenosine 5′-diphosphate] |  |  | 2.5 | 5 | rapid and complete platelet aggregation |
